Structures are written as SMILES. Values joined by “and” are separate entries in the source; they are usually repeats but may differ in a detail not shown here. Identical values can stand only once.

By Kd is commonly meant a measure of binding affinity in units of concentration.

The target of series [1] is T1, OSM (Homo sapiens, UniProt P13725).
T1 sequence (P13725 26-252): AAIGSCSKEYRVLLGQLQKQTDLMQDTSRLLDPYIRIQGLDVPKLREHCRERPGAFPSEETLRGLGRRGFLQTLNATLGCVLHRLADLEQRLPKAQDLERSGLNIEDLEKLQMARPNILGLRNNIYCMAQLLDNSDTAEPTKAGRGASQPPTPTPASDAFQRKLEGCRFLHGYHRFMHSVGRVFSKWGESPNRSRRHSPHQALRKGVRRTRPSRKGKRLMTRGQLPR
The series is described as follows: Fluorescence quenching assay of SMI binding to OSM. The conditions noted are these: average of three independent replicates, errors at 95% confidence level, read-out: KD (OSM-SMI dissociation constant). On the procedure: To perform fluorescence quenching assays, 2 mL of 1 μM OSM solution in polymethylmethacrylate cuvettes was prepared by dilution of a concentrated stock solution of recombinant OSM with buffer solution (100 mM sodium chloride, 50 mM sodium phosphate, 50 mM freshly added DTT, pH = 6.6). Cuvettes were titrated with 5 μL increments of a 1 mM small molecule stock solution in DMSO, with a cuvette titrated with an equivalent volume of DMSO as a control. […] In cases where little to no significant quenching was observed, the titration was supplemented with 2.5 μL increments of a 10 mM small molecule stock solution to increase the concentration delivered. The fluorescence intensity measurements were obtained on a Cary Eclipse spectrofluorometer equipped with a Xenon arc lamp. Fluorescence intensities were measured by exciting at 280 nm (4 nm slit width) and recording the emission from 345 to 355 nm with a photomultiplier tube voltage of 700 V, unless otherwise noted. Each titration point was normalized to OSM’s native fluorescence intensity, corrected by adding the decrease in fluorescence intensity caused by dilution with DMSO, and the average value of the three replicates for each point was plotted against concentration of small molecule delivered and fit to a modified Stern–Volmer function as described by Charlier and Plapp. Binding affinity (K D) values were obtained […] from the fitting routine. All curve-fitting analysis was performed in GraphPad Prism 8.0.

Series [2] has as its target T2, gp130 (Homo sapiens, UniProt P40189).
T2 construct: purchased R&D Systems 671-GP
T2 sequence (P40189 23-619 limits assumed): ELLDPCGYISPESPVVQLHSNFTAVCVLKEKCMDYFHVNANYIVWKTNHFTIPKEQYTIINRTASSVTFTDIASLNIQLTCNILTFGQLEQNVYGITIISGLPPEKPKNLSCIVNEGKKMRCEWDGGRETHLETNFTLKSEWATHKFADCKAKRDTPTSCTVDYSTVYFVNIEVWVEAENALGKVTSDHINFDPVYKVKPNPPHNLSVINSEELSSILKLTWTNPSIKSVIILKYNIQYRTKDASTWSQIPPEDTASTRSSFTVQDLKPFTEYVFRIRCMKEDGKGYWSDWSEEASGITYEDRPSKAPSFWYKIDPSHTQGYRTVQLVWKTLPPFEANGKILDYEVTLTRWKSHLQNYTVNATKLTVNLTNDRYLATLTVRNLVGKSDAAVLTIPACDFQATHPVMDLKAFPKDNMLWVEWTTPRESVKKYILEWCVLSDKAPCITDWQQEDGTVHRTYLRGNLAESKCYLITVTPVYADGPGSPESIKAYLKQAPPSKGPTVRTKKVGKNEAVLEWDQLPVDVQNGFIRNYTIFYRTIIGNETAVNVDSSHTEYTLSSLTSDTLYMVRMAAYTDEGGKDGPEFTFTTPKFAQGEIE
The series can be described thus: Fluorescence quenching check of SMI binding to gp130. The conditions noted are these: data not shown.

For series [3], the system named is OSM-induced pSTAT3 in MDA-MB-231 human breast cancer cells. The series is described as follows: pSTAT3 ELISA in MDA-MB-231 cells treated with OSM ± SMI. Type of series: cell-based. The conditions noted are these: SMI 10 μM, OSM 10 ng/mL, 30 min. How it is done: 2 High-throughput virtual screening identifies three novel compounds capable of interacting with site III of OSM. […] (F) Structure of parent SMI-10. Data are presented as mean ± SD relative to + OSM treatment, analyzed by one-way ANOVA with Tukey’s posttest *p < 0.05, **p < 0.01. To test the effect of SMIs in vitro, each SMI was incubated with OSM for a period of 1 h at 37 °C, and T47D and MDA-MB-231 human breast cancer cell lines were subsequently treated with OSM (10 ng/mL) and/or SMI-10 (10 μM) analogs for 30 min and measured for pSTAT3 levels via ELISA. The results of these assays are presented graphically in Figure and, for T47D cells, in Table as a percentage of reduction from +OSM alone. For phospho-STAT3 (pSTAT3) ELISAs, T47D MDA-MB-231, and MCF-7 cells were seeded in 12- or 24-well plates at 70–75% confluency and allowed to adhere overnight, after which cells were serum-starved with serum-free RPMI-1640 for 4 h. SMIs (10 μM in DMSO or serially diluted to specified concentrations from a 100 mM stock in DMSO) and human recombinant OSM (10 ng/mL; PeproTech; #300–10T-10UG) were incubated in serum-free RPMI-1640 medium for 1 h. After incubation, the SMI-10 analogs or SMI-10B13 and OSM were added to the serum-starved cells for 30 min. Immediately afterward, the cells were lysed using 1x PathScan Sandwich ELISA Lysis Buffer (Cell Signaling Technology; #7018S), collected, and stored at −20 °C. Lysates were analyzed for pSTAT3 levels using either the PathScan Phospho-STAT3 (Tyr705) Sandwich ELISA Antibody Pair kit (Cell Signaling Technology; #7146) or Human/Mouse Phospho-STAT3 (Y705) DuoSet IC ELISA (R&D Systems; DYC4607B), according to manufacture’s protocol. pSTAT3 expression was measured with absorbance at 450 nm and quantified by comparison relative to OSM-induced pSTAT3 levels. To calculate an IC50 for SMI-10B13, a standard curve was generated as described in the DuoSet IC ELISA datasheet to determine the concentration of pSTAT3.

Series [4] is described as follows: Aqueous solubility (comparison in words). Type of series: physicochemical. The conditions noted are these: compared to other analogs.

With `O=C(O)/C=C/c1cc(-c2ccc3cc[nH]c3c2)c(-c2ccc3cc[nH]c3c2)o1` [SMI-10B13, (E)-3-(4,5-di(1H-Indol-6-yl)furan-2-yl)acrylic Acid], in series [1], the Kd was ~7 µM and 6.6 µM. Moreover, in series [2], the “Binding to gp130” value is given as “does not bind to gp130”.
As for `O=C(O)/C=C/c1cc(-c2ccc3c(c2)OCO3)c(-c2ccc3c(c2)OCO3)o1` [SMI-10B, (E)-3-(4,5-Bis(benzo[d][1,3]dioxol-5-yl)furan-2-yl)acrylic acid], the Kd in series [1] stood at 12.9 ± 1.5 µM. Moreover, the “Inhibition of OSM-induced pSTAT3 via ELISA” value in series [3] is “capable of inhibiting OSM-induced pSTAT3”. Besides, the “Aqueous solubility” value in series [4] is “increased aqueous solubility compared to other analogs”.
